Data set [1] deals with human umbilical cord blood derived CD34+ cells. As to the kind of experiment: CD34+ cell survival in hypoxia and serum deprived conditions (Annexin V/PI flow cytometry). In kind it is cell-based. As to conditions: hypoxia 0.5% O2, 24 h, serum free; P<0.001. As to the method: In an embodiment, UCB CD34+ cells (1×10^^6 cells/mL) were incubated in X-Vivo media (Lonza) in a hypoxia chamber for 24 h (0.5% of O2 and 5% of CO2), in the presence or absence of pharmacological drugs, for further assessment of cell survival/apoptosis and necrosis by FACS analysis of the expression of annexin V and PI respectively. Preferably, cells were pretreated with the respective drugs for 1 hour before hypoxia, and treatment maintained during hypoxia.
In a preferred embodiment, to identify molecules that promote CD34+ cell survival in hypoxia and serum deprived conditions we developed an assay that uses human umbilical cord blood derived CD34+ cells (2×10^^5 cells per well of a 96-well plate) suspended in X-Vivo medium (used in clinical trials (Schachinger, V., et al., Intracoronary bone marrow-derived progenitor cells in acute myocardial infarction. N Engl J Med, 2006. 355(12): p. 1210-21)) and incubated in a hypoxia chamber at 0.5% O2, at 37° C., for 24 h. Some of the drugs selected have been approved by FDA for the treatment of cardiovascular diseases (e.g. Nebivolol Lombardo, R. M., et al., Effects of nebivolol versus carvedilol on left ventricular function in patients with chronic heart failure and reduced left ventricular systolic function. Am J Cardiovasc Drugs, 2006. 6(4): p. 259-63; Ibersatan Massie, B. M., et al., Irbesartan in patients with heart failure and preserved ejection fraction. N Engl J Med, 2008. 359(23): p. 2456-67), others are being evaluated in pre-clinical/clinical assays to improve heart function in patients/models with heart failure (e.g. INO1001 (Szabo, G., et al., INO-1001 a novel poly(ADP-ribose) polymerase (PARP) inhibitor improves cardiac and pulmonary function after crystalloid cardioplegia and extracorporal circulation. Shock, 2004. 21(5): p. 426-32); erythropoietin (Belonje, A. M., et al., Effects of erythropoietin after an acute myocardial infarction: rationale and study design of a prospective, randomized, clinical trial (HEBE III). Am Heart J, 2008. 155(5): p. 817-22); melatonin (Chen, Z., et al., Protective effect of melatonin on myocardial infarction. Am J Physiol Heart Circ Physiol, 2003. 284(5): p. H1618-24); VX-702 (Ma, X. L., et al., Inhibition of p38 mitogen-activated protein kinase decreases cardiomyocyte apoptosis and improves cardiac function after myocardial ischemia and reperfusion. Circulation, 1999. 99(13): p. 1685-91)), others are natural substances found in the human body (LPA). Cell viability was evaluated by flow cytometry using Annexin V/propidium iodide (PI) staining. Annexin V is a phospholipid-binding protein with specificity for phospatidyl serine, one of the earliest makers of cellular transition to an apoptotic state. This phospholipid is translocated from the inner to the outer leaflet of the plasma membrane (Koopman, G., et al., Annexin V for flow cytometric detection of phosphatidylserine expression on B cells undergoing apoptosis. Blood, 1994. 84(5): p. 1415-20.). PI enters in necrotic cells and binds to double-stranded nucleic acids, but is excluded from cells with normal integrity. According to FIG. 1, untreated CD34+ cells show a very poor survival, with only ˜31% of viable cells, ˜31% of apoptotic cells (Annexin V+/PI−) being the majority of the cells ˜39% at the necrotic stage (PI+). […] LPA (10 μM) was the drug with the highest pro-survival effect (˜69% of viable cells) and therefore further studied (FIGS. 1 and 2A).
Importantly, the percentage of viable cells in CD34+ treated with 1 μM of LPA and cultured under hypoxia conditions is similar to untreated cells cultured under normoxia conditions. The pro-survival effect of LPA decreases as a function of hypoxia time (FIG. 2C). The percentage of viable cells in LPA-treated CD34+ cells decreased from 78% at day 1 to 40% at day 3.
(A flow cytometer gives signals particle by particle.)

Data set [2] concerns CD34+ cells. As to the kind of experiment: Antagonist pretreatment and LPA-induced CD34+ cell survival in hypoxia (Annexin V/PI FACS). As to conditions: hypoxia 24 h; for effect of antagonist on pro-survival effect of LPA: antagonist 1 h pretreatment + LPA 100 μM. In kind it is cell-based, human. As to the method:
FIG. 5—LPA induces CD34+ cell survival mainly through peroxisome proliferator-activator receptor (PPAR). Cells were cultured in serum free medium with LPA. Cells were pretreated with Rho kinase inhibitor (Y-2762, 50 μM), mitogen-activated protein kinase (MAPK) inhibitor (PD98059, 60 μM), LPA1- and LPA3-specific inhibitor (Ki16425, 10 μM), or peroxisome proliferator-activator receptor g (PPARg) inhibitor (GW9662, 50 μM) for 1 hour before hypoxia and cell medium containing LPA (100 μM) for 24 h. Cells without any pretreatment and cultured in serum free medium with or without LPA, in hypoxia for 24 h, were used as positive and negative controls, respectively. Results are average±SEM (n=3-6). * Denote statistical significance: *P<0.05, **P<0.01, […].
The biological roles of LPA are diverse and include developmental, physiological, and pathophysiological effects (Lin, M. E., D. R. Herr, and J. Chun, Lysophosphatidic acid (LPA) receptors: signaling properties and disease relevance. Prostaglandins Other Lipid Mediat, 2010. 91(3-4): p. 130-8). To date up to five LPA receptors (LPARs) have been identified: LPA1-LPA5 (Choi, J. W., et al., LPA receptors: subtypes and biological actions. Annu Rev Pharmacol Toxicol, 2010. 50: p. 157-86). The receptors are G protein-coupled receptors (GPCRs) and their presence can be found in multiple tissues. LPA1, LPA2 and LPA3 are widely expressed in most tissues (Ishii, I., et al., Functional comparisons of the lysophosphatidic acid receptors, LP(A1)/VZG-1/EDG-2, LP(A2)/EDG-4, and LP(A3)/EDG-7 in neuronal cell lines using a retrovirus expression system. Mol Pharmacol, 2000. 58(5): p. 895-902). LP4 is expressed in specific organs, such as the pancreas, ovaries and thymus (Lee, C. W., et al., LPA(4)/GPR23 is a lysophosphatidic acid (LPA) receptor utilizing G(s)-, G(q)/G(i)-mediated calcium signaling and G(12/13)-mediated Rho activation. J Biol Chem, 2007. 282(7): p. 4310-7). LPA5 is expressed at low levels in multiple tissues (Lee, C. W., et al., GPR92 as a new G12/13- and Gq-coupled lysophosphatidic acid receptor that increases cAMP, LPA5. J Biol Chem, 2006. 281(33): p. 23589-97). To identify the receptor that is mediating the pro-survival effect of LPA (100 μM), was used Ki16425 (10 μM), an LPA1- and LPA3-specific antagonist, and GW9662 (50 μM), an antagonist of peroxisome proliferator-activator receptor γ (PPAR γ). Studies indicate that LPA has a high affinity by this last receptor (McIntyre, T. M., et al., Identification of an intracellular receptor for lysophosphatidic acid (LPA): LPA is a transcellular PPARgamma agonist. Proc Natl Acad Sci USA, 2003. 100(1): p. 131-6; Gustin, C., M. Van Steenbrugge, and M. Raes, LPA modulates monocyte migration directly and via LPA-stimulated endothelial cells. Am J Physiol Cell Physiol, 2008. 295(4): p. C905-14). This approach was complemented, by inhibiting downstream targets of the receptors including Rho kinase and mitogen-activated protein kinase (MAPK) using Y-2762 (50 μM) and PD98059 (60 μM) antagonists, respectively. It is known that all LPARs couple with and activate G proteins, which in turn activate MAPK (LPA1, LPA2, LPA3 and LPA4) and Rho kinase (LPA1, LPA2, LPA4 and LPA5) (Choi, J. W., et al., LPA receptors: subtypes and biological actions. Annu Rev Pharmacol Toxicol, 2010. 50: p. 157-86). Cells were treated for 1 h in X-Vivo medium containing a specific antagonist followed by culture under hypoxia conditions for 24 h. Cell survival was assessed by FACS analysis after Annexin V/PI staining. […] The number of viable cells decreased from 77% (+LPA) to 67% (P<0.01, n=19). […] Because the two signaling pathways are downstream targets of different LPARs (see above), this might indicate different contributions of LPARs in the survival of CD34+ cells.

Structures are written as SMILES.

Turning to `CCCCC[C@H](O)/C=C/[C@H]1[C@H](O)CC(=O)[C@@H]1C/C=C\CCCC(=O)O` [prostaglandin E2, reference compound], the “cell survival vs untreated cells” value in data set [1] is “improved significantly”.
As to `O=C(Nc1ccccc1)c1cc([N+](=O)[O-])ccc1Cl` [GW9662], the “number of viable cells induced by LPA after antagonist” value in data set [2] (GW9662 50 μM 1 h pretreatment + LPA 100 μM, P<0.001, n=11) is given as about 53%. Further, the “effect of antagonist on pro-survival effect of LPA” value (shortened to “effect of antagonist”) in data set [2] is “did not block totally the pro-survival effect of LPA”.
Turning to `COc1cccc(-c2cc(=O)c3ccccc3o2)c1N` [PD98059], in data set [2], the “effect of antagonist” value was “suppressed at higher levels the pro-survival effect of LPA than the inhibition of Rho kinase signaling pathway”.
Take `Cc1noc(-c2ccc(CSCCC(=O)O)cc2)c1NC(=O)OC(C)c1ccccc1Cl` (stereo not drawn) [Ki16425]: the “number of viable cells induced by LPA after antagonist” value in data set [2] (Ki16425 10 μM 1 h pretreatment + LPA 100 μM, P<0.01, n=19) worked out at 67%. In addition, the “effect of antagonist” value in data set [2] is recorded as “relatively small effect”.
